Measurements published in patent publication US5700481A, “Transdermal drug delivery process” (Takeda Chemical Industries, Ltd., priority 1995, dated 1997).

What was measured:
[1] = Transdermal iontophoretic delivery of salmon calcitonin with different amounts in drug-retaining membrane (Example 2); type: in vivo, SD rat (male, 7-week aged); conditions: 12 V
Method: (§1) An abdominal skin of a SD rat (male, 7-week aged) was clipped with a hair clipper and treated with a shaver under pentobarbital-anesthetization, and was slightly rubbed with an absorbent cotton (cotton wool) containing a 70% aqueous solution of ethanol for defatting and disinfection. […] Meanwhile, in the Applicator A shown in FIG. 1, the dried drug was dissolved immediately before use by supplying or feeding water to the membrane from the reservoir. In the applicator B illustrated in FIG. 2, the applicator was first attached or adhered to the skin and then the dried drug was dissolved by supplying 120 μl of a distilled water from an injection tip. […]
Blood was took from jugular veins (cervical vein) of the rat and centrifuged at a rate of 12,000 rpm for 10 minutes, and the concentration of the salmon calcitonin in the obtained serum sample was determined by a radioimmunoassay method. […]
(§2) Under pentobarbital-anesthetization, an abdominal skin of a SD rat (male, 7-week aged) was clipped with a hair clipper and treated with a shaver, and was slightly rubbed with an absorbent cotton (cotton wool) containing a 70% aqueous solution of ethanol for defatting and disinfection. […] The current density determined in the initial stage of the voltage application was about 0.24 mA/cm^2 as a mean value of the each rat. […]

[2] = Correlation between initial electric current value and AUC value (Example 3); type: in vivo, SD rat (male, 7-week aged); conditions: in terms of dosage of 20 μg; initial current 0.2 mA/2.5 cm^2 to 0.7 mA/2.5 cm^2 (0.08 to 0.28 mA/cm^2); 48 tests; FIG. 5
Method: as §1
Then, a continuous voltage application for 15 minutes was repeated for 3 times at a time interval of 5 minutes in the following manner. […] In the respective voltage application, observed electric current in the initial stage of the voltage application was respectively determined for each rat. […]
as §2

[3] = Transdermal iontophoretic delivery of salmon calcitonin; serum concentration by radioimmunoassay and bioavailability (AUC relative to intravenous) (Example 1); type: in vivo, SD rat (male, 7-week aged); conditions: for bioavailability (BA): 20 μg per membrane (BSA pretreated), 40 kHz, duty 30%, 15 min x 3 at 5 min interval, vs intravenous AUC
Method: An abdominal skin of a SD rat (male, 7-week aged) was clipped with a hair clipper and treated with a shaver under pentobarbital-anesthetization, and was slightly rubbed with an absorbent cotton (cotton wool) containing a 70% aqueous solution of ethanol for defatting and disinfection. […] Meanwhile, in the Applicator A shown in FIG. 1, the dried drug was dissolved immediately before use by supplying or feeding water to the membrane from the reservoir. In the applicator B illustrated in FIG. 2, the applicator was first attached or adhered to the skin and then the dried drug was dissolved by supplying 120 μl of a distilled water from an injection tip. Further, a silver chloride electrode (2.5 cm^2) as a reference electrode was adhered and fixed in the opposite part to the adhered part of the applicator via an electrically conductible gel comprising 10% PVA gel containing 0.9% of NaCl in a thickness of 2 mm.
Then, a continuous voltage application for 15 minutes was repeated for 3 times at a time interval of 5 minutes in the following manner. That is, the voltage application was effected by a direct-current pulse application (depolarizing constant voltage square pulse application) with a frequency of 40 kHz and a duty (pulse-duty factor) of 30% using the applicator as an anode and the reference electrode as a cathode, with changing the applied voltage as follows. In the respective voltage application, observed electric current in the initial stage of the voltage application was respectively determined for each rat. The current density as a mean value for the subjects are as follows.
(1) Applicator A: voltage 6 V current density about 0.04 mA/cm^2
(2) Applicator B: voltage 12 V current density about 0.24 mA/cm^2
(3) Applicator C: voltage 12 V current density about 0.24 mA/cm^2
(§3) Blood was took from jugular veins (cervical vein) of the rat and centrifuged at a rate of 12,000 rpm for 10 minutes, and the concentration of the salmon calcitonin in the obtained serum sample was determined by a radioimmunoassay method. The results are illustrated in FIG. 3.

[4] = Transdermal iontophoretic delivery of salmon calcitonin with stepwise decreased voltage (Example 4); type: in vivo, male SD rat (7-week aged); conditions: for bioavailability (BA): Applicator A, 4 μg per membrane (BAC pretreated), 30 kHz, duty 50%
Method: as §3
An abdominal skin of a male SD rat (7-week aged) was clipped with a hair clipper and treated with a shaver under pentobarbital-anesthetization, and was slightly rubbed with an absorbent cotton holding a 70% aqueous solution of ethanol for defatting and disinfection. […] Immediately before the use of the applicator, the dried drug was dissolved by supplying water from the reservoir. Further, a reference electrode was attached and fixed to the skin in the same manner as Example 1.
Then, in the common condition of a frequency of 30 kHz and a duty of 50%, the calcitonin was transdermally delivered according to the following processes:
(1) a process of applying a voltage of 12 V for 5 minutes and, without interruption, applying a voltage of 7.5 V for 40 minutes,
(2) a process of applying a voltage of 12 V for 15 minutes and, without interruption, applying a voltage of 7.5 V for 30 minutes, and
(3) a process of applying a voltage of 12 V for 15 minutes.
The salmon calcitonin concentrations in the serum were evaluated in the same manner as Example 1, and the results are illustrated in FIG. 6.

Substance: salmon calcitonin
- bioavailability (BA) ([1]; Applicator B, drug-retaining membrane (1), 10 μg (BAC pretreated), 40 kHz, duty 30%, 15 min x 3 at 5 min interval): 23.3%
- serum salmon calcitonin concentration ([1]; according to possessing amount (10 or 20 μg), FIG. 4): could be controlled according to the possessing amount
- AUC value [2]: large AUC values
- bioavailability (BA) ([3]; Applicator A, applied voltage 6 V): 4.6%
- bioavailability (BA) ([3]; Applicator A, applied voltage 12 V): 16.6%
- bioavailability (BA) ([3]; Applicator B, applied voltage 12 V): 16.6%
- salmon calcitonin concentration in the serum ([3]; applied voltage 12 V (iontophoresis (2) and (3)) in comparison with 6 V (1), FIG. 3): can be increased in comparison with the iontophoresis (1)
- bioavailability (BA) ([4]; process (1): 12 V for 5 min then 7.5 V for 40 min): 13.6%
- bioavailability (BA) ([4]; process (2): 12 V for 15 min then 7.5 V for 30 min): 14.2%
- bioavailability (BA) ([4]; process (3): 12 V for 15 min): 3.6%
- serum salmon calcitonin concentration ([4]; processes (1) and (2) compared with process (3), FIG. 6): high
